Measurements: patent publication US9775844B2, “Heterocyclic compounds and uses thereof” (Infinity Pharmaceuticals, Inc., priority 2014, dated 2017)

Legend:
PI3K α = PI3K α (Homo sapiens (Human), UniProt P42336); assay: PI3-Kinase Promega ADP-Glo Max assay; type: biochemical
PI3K β = PI3K β (Homo sapiens (Human), UniProt P42338); assay: PI3-Kinase Promega ADP-Glo Max assay; type: biochemical
Description: (§1) Promega ADP-Glo Max assay kit (Cat. No. V7002) was utilized to determine IC50 values for α, β, δ and γ isoforms of human Class I PI3 kinases (Millipore). […] Reactions were incubated at room temperature for 2 hours followed by addition of 25 uL of stop solution. After a 40-minute incubation at room temperature, 50 uL of Promega detection mix was added followed by incubation for 1 hour at room temperature. Plates were then read on Envision plate reader in lunimescence mode. Data was converted to % inhibition using the following equation below:
(§2) [formula] where S is the sample luminescence, Pos is a positive control without added PI3K, Neg is the negative control without added compound. Data was then plotted as % inhibition vs compound concentration.

PI3K δ = PI3K δ (Homo sapiens (Human), UniProt O00329); assay: PI3-Kinase Promega ADP-Glo Max assay; type: biochemical
Description: as §1, §2

PI3K γ = PI3K γ (Homo sapiens (Human), UniProt P48736); assay: PI3-Kinase Promega ADP-Glo Max assay; type: biochemical
Chain of PI3K γ (P48736 whole entry): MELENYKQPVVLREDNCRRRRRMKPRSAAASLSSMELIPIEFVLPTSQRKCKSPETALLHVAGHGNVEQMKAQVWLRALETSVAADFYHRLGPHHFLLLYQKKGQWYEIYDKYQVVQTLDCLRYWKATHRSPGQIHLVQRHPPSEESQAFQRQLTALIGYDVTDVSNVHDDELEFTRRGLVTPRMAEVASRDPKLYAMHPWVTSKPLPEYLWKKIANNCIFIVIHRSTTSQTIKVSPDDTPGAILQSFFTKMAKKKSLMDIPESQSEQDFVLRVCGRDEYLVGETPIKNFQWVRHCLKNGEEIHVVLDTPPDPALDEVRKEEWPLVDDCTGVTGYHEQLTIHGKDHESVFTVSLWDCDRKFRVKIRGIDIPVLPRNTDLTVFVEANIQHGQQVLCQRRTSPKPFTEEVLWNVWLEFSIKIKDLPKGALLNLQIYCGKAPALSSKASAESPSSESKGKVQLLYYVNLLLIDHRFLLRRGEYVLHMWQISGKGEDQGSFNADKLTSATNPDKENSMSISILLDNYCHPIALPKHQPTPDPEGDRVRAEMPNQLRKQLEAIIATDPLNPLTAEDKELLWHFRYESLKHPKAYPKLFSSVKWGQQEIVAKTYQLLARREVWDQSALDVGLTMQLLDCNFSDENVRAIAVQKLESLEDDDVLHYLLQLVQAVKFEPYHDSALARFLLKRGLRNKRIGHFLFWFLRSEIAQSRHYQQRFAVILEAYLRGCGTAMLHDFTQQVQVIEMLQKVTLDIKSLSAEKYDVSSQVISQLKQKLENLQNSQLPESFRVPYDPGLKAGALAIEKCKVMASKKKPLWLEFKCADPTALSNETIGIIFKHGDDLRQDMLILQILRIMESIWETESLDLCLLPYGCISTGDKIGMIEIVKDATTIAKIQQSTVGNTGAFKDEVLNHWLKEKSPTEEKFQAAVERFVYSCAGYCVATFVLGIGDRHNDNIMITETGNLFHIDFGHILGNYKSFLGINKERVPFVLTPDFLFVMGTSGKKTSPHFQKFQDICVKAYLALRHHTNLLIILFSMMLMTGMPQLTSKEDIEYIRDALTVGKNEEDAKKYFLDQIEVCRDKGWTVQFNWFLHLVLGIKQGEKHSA
Description: as §1, §2

PI3K-δ in RAJI cells = PI3K-δ in RAJI cells (Homo sapiens (Human), UniProt O00329); assay: RAJI p110 δ assay (PI3K-δ selective cellular assay, phospho-AKT); type: cell-based; conditions: phospho-AKT; read-out: RAJI p110 δ assay IC50
[1] = biological target: PI3K-γ in RAW264.7 macrophages (Mus musculus (Mouse), UniProt Q9JHG7); assay: Raw264.7 p110 γ assay (PI3K-γ selective cellular assay, C5a-stimulated phospho-AKT); type: cell-based; conditions: for IC50: phospho-AKT, read-out: Raw264.7 p110 γ assay IC50
Chain of PI3K-γ in RAW264.7 macrophages (Q9JHG7 whole entry): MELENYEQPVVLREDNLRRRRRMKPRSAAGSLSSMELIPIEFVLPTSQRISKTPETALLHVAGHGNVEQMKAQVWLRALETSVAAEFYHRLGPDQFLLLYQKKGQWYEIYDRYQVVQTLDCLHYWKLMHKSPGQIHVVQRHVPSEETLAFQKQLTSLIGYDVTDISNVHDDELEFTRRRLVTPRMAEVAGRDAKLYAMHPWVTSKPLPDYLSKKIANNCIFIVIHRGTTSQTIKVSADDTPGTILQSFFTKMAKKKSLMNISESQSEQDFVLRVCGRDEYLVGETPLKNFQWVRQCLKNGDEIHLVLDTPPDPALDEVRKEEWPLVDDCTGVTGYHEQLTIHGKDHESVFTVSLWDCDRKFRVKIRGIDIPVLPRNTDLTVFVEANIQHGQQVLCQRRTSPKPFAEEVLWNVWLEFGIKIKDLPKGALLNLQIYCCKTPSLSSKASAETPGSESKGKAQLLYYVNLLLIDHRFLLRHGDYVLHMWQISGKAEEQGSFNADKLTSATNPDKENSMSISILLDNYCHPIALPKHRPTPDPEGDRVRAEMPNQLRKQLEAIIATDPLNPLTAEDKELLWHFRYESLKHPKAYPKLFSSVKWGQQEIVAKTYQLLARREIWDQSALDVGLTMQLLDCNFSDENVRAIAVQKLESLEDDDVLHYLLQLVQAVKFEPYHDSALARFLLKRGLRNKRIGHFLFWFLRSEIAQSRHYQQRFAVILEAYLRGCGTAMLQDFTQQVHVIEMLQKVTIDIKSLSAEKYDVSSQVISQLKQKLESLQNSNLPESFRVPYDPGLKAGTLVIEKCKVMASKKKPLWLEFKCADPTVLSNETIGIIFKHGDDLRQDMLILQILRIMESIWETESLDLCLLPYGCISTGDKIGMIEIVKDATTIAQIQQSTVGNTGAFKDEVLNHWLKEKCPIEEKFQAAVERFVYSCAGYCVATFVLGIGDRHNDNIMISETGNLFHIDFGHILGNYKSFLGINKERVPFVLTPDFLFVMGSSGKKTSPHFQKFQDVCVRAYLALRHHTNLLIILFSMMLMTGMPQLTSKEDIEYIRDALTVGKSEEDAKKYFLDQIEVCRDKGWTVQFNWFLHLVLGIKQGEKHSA
Excerpt: Briefly, serum-starved RAW264.7 cells are stimulated with a known GPCR agonist C5a. […] Cells can be treated with test compounds prior to, simultaneously with, or subsequent to the stimulation by C5a. RAW 264.7 cells respond to the complement component fragment C5a through activation of the C5a receptor, and the C5a receptor activates macrophages and induces cell migration.

Chain of PI3K α (P42336 whole entry): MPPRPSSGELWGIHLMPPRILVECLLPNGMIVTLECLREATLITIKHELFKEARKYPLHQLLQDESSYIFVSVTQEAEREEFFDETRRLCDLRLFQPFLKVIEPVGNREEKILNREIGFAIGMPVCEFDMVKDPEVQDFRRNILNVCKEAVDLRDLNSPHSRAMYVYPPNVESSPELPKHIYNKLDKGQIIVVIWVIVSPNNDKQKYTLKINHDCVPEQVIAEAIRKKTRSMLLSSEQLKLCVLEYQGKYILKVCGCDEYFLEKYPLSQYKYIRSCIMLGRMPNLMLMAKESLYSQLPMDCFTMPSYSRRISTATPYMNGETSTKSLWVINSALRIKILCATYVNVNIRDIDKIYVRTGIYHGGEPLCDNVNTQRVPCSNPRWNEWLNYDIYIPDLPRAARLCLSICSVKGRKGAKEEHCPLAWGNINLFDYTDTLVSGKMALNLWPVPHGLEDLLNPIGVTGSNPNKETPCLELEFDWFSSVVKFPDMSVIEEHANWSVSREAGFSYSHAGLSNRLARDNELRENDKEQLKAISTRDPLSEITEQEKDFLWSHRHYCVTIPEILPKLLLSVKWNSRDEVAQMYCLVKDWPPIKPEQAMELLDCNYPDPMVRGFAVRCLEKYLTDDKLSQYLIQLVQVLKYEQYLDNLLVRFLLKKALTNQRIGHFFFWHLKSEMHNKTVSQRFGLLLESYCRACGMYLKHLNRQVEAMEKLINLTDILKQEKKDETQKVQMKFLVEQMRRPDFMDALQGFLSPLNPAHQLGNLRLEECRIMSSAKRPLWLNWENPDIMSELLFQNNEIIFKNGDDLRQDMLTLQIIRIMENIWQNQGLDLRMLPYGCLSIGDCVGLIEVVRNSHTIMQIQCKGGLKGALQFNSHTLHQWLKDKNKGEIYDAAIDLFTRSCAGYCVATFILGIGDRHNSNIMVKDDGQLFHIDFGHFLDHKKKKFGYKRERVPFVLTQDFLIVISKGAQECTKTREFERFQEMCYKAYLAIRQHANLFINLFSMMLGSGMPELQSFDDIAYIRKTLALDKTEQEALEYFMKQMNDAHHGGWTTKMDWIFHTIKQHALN
Chain of PI3K α (P27986 whole entry partner): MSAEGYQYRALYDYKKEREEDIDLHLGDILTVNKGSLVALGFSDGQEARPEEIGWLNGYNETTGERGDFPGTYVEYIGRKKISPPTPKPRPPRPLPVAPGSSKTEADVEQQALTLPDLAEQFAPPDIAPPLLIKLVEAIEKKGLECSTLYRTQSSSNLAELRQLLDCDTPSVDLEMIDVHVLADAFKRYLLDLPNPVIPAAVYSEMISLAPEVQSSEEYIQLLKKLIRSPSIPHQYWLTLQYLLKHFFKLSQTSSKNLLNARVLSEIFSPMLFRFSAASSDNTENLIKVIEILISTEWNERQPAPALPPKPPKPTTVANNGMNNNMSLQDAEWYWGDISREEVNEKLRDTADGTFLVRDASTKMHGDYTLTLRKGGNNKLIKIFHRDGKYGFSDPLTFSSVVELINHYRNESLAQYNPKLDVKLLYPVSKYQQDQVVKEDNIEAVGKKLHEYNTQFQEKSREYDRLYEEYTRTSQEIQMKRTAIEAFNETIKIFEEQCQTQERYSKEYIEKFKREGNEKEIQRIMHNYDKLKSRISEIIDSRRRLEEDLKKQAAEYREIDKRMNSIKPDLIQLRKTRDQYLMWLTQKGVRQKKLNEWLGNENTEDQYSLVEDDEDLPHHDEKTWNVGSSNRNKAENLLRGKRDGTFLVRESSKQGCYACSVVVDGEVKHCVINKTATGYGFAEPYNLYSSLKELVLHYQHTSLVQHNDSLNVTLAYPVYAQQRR
Chain of PI3K β (P42338 whole entry): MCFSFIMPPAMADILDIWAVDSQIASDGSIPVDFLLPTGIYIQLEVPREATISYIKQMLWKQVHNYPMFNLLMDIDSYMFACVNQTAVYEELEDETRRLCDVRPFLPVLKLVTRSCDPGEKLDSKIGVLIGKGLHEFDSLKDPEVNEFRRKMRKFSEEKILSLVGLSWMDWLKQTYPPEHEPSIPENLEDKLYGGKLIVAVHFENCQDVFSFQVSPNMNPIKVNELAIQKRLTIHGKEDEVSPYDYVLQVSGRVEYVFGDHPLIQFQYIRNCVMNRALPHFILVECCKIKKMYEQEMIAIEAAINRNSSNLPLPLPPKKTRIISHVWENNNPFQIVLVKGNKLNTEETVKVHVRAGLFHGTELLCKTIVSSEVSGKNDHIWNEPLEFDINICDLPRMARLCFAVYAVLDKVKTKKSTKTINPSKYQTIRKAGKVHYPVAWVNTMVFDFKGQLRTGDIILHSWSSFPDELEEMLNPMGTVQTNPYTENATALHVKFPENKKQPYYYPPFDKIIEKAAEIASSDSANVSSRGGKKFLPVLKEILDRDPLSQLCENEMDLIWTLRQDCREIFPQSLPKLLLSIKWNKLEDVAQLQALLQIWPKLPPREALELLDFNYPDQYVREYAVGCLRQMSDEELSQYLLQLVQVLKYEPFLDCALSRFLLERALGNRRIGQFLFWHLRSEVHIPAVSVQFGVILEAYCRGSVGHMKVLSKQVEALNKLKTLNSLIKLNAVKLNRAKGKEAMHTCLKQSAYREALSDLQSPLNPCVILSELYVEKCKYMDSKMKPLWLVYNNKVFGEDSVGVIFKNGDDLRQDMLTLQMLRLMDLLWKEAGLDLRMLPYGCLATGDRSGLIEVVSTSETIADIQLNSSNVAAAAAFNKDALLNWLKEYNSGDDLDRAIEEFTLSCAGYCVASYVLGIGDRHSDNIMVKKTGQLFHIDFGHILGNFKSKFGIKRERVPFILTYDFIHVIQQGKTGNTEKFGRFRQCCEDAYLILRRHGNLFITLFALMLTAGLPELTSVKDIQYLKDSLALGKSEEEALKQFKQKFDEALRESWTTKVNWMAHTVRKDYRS
Chain of PI3K β (P27986 whole entry partner): as the sequence (P27986 whole entry partner) above

CC#Cc1cccc2cc(C(C)NC(=O)c3c(N)nn4cccnc34)c(-c3ccccc3)nc12 (centres unmarked) [Compound 51]
IC50 (PI3K α): 5 to 10 µM | IC50 (PI3K β): 1 to 5 µM | IC50 (PI3K δ): 1 to 5 µM | IC50 (PI3K γ): 100 to 500 nM | PI3K δ/PI3K γ IC50 (selectivity) (PI3K γ): W (W = >1 to <10) | IC50 (PI3K-δ in RAJI cells): 1 to 100 nM | RAJIδ/Raw264.7 γ IC50 (selectivity) [1]: W (W = >1 to <10) | IC50 [1]: 1 to 50 nM

C[C@H](NC(=O)c1c(N)nn2cccnc12)c1cc2cccc(C#Cc3cscn3)c2c(=O)n1-c1ccccc1 [Compound 54]
IC50 (PI3K α): 1 to 5 µM | IC50 (PI3K β): 1 to 5 µM | IC50 (PI3K δ): 1 to 5 µM | IC50 (PI3K γ): 1 to 100 nM | PI3K δ/PI3K γ IC50 (selectivity) (PI3K γ): Y (Y = 50 to <850) | IC50 (PI3K-δ in RAJI cells): 100 to 500 nM | RAJIδ/Raw264.7 γ IC50 (selectivity) [1]: W (W = >1 to <10) | IC50 [1]: 1 to 50 nM

C[C@H](NC(=O)c1c(N)nn2cccnc12)c1nc2cccc(C#Cc3cnn(C)c3)c2c(=O)n1C [Compound 55]
IC50 (PI3K α): 1 to 5 µM | IC50 (PI3K β): 1 to 5 µM | IC50 (PI3K δ): 5 to 10 µM | IC50 (PI3K γ): 1000 to 5000 nM | PI3K δ/PI3K γ IC50 (selectivity) (PI3K γ): W (W = >1 to <10) | IC50 (PI3K-δ in RAJI cells): 500 to 1000 nM | RAJIδ/Raw264.7 γ IC50 (selectivity) [1]: X (X = 10 to <50) | IC50 [1]: 1 to 50 nM

C[C@H](NC(=O)c1c(N)nn2cccnc12)c1cc2cccc(C#CCN3CCN(C)CC3)c2c(=O)n1-c1ccccc1 [Compound 56]
IC50 (PI3K α): 5 to 10 µM | IC50 (PI3K β): 5 to 10 µM | IC50 (PI3K δ): 5 to 10 µM | IC50 (PI3K γ): 100 to 500 nM | PI3K δ/PI3K γ IC50 (selectivity) (PI3K γ): X (X = 10 to <50) | IC50 (PI3K-δ in RAJI cells): 100 to 500 nM | RAJIδ/Raw264.7 γ IC50 (selectivity) [1]: V (V = 0.1 to 1) | IC50 [1]: 100 to 10000 nM

C[C@H](NC(=O)c1c(N)nn2cccnc12)c1cc2cccc(C#CCN(C)C)c2c(=O)n1-c1ccccc1 [Compound 57]
IC50 (PI3K α): 5 to 10 µM | IC50 (PI3K β): 5 to 10 µM | IC50 (PI3K δ): 5 to 10 µM | IC50 (PI3K γ): 500 to 1000 nM | PI3K δ/PI3K γ IC50 (selectivity) (PI3K γ): W (W = >1 to <10) | IC50 (PI3K-δ in RAJI cells): 100 to 500 nM | RAJIδ/Raw264.7 γ IC50 (selectivity) [1]: W (W = >1 to <10) | IC50 [1]: 50 to 100 nM

C[C@H](NC(=O)c1c(N)nn2cccnc12)c1cc2cccc(C#CC(F)(F)F)c2c(=O)n1-c1ccccc1 [Compound 58]
IC50 (PI3K α): 5 to 10 µM | IC50 (PI3K β): 5 to 10 µM | IC50 (PI3K δ): 5 to 10 µM | IC50 (PI3K γ): 1000 to 5000 nM | PI3K δ/PI3K γ IC50 (selectivity) (PI3K γ): W (W = >1 to <10) | IC50 (PI3K-δ in RAJI cells): 500 to 1000 nM | RAJIδ/Raw264.7 γ IC50 (selectivity) [1]: V (V = 0.1 to 1) | IC50 [1]: 100 to 10000 nM

C[C@H](NC(=O)c1c(N)nn2cccnc12)c1cc2cccc(C#Cc3nccs3)c2c(=O)n1-c1ccccc1 [Compound 59]
IC50 (PI3K α): 5 to 10 µM | IC50 (PI3K β): 5 to 10 µM | IC50 (PI3K δ): 5 to 10 µM | IC50 (PI3K γ): 100 to 500 nM | PI3K δ/PI3K γ IC50 (selectivity) (PI3K γ): X (X = 10 to <50) | IC50 (PI3K-δ in RAJI cells): 100 to 500 nM | RAJIδ/Raw264.7 γ IC50 (selectivity) [1]: X (X = 10 to <50) | IC50 [1]: 1 to 50 nM

Cc1csc(C#Cc2cccc3cc([C@H](C)NC(=O)c4c(N)nn5cccnc45)n(-c4ccccc4)c(=O)c23)n1 [Compound 60]
IC50 (PI3K α): 5 to 10 µM | IC50 (PI3K β): 5 to 10 µM | IC50 (PI3K δ): 5 to 10 µM | IC50 (PI3K γ): 100 to 500 nM | PI3K δ/PI3K γ IC50 (selectivity) (PI3K γ): X (X = 10 to <50) | IC50 (PI3K-δ in RAJI cells): 100 to 500 nM | RAJIδ/Raw264.7 γ IC50 (selectivity) [1]: Y (Y = 50 to <850) | IC50 [1]: 1 to 50 nM

Cc1ccncc1C#Cc1cccc2cc([C@H](C)NC(=O)c3c(N)nn4cccnc34)n(-c3ccccc3)c(=O)c12 [Compound 61]
IC50 (PI3K α): 5 to 10 µM | IC50 (PI3K β): 5 to 10 µM | IC50 (PI3K δ): 5 to 10 µM | IC50 (PI3K γ): 500 to 1000 nM | PI3K δ/PI3K γ IC50 (selectivity) (PI3K γ): X (X = 10 to <50) | IC50 (PI3K-δ in RAJI cells): 1000 to 10000 nM | RAJIδ/Raw264.7 γ IC50 (selectivity) [1]: Y (Y = 50 to <850) | IC50 [1]: 1 to 50 nM

C[C@H](NC(=O)c1c(N)nn2cccnc12)c1cc2cccc(C#CC3(O)CN4CCC3CC4)c2c(=O)n1-c1ccccc1 (some centres unmarked) [Compound 62]
IC50 (PI3K α): 5 to 10 µM | IC50 (PI3K β): 5 to 10 µM | IC50 (PI3K δ): 5 to 10 µM | IC50 (PI3K γ): 500 to 1000 nM | PI3K δ/PI3K γ IC50 (selectivity) (PI3K γ): X (X = 10 to <50) | IC50 (PI3K-δ in RAJI cells): 1000 to 10000 nM | RAJIδ/Raw264.7 γ IC50 (selectivity) [1]: V (V = 0.1 to 1) | IC50 [1]: 100 to 10000 nM

Cc1nc(C#Cc2cccc3nc([C@H](C)NC(=O)c4c(N)nn5cccnc45)n(-c4ccccc4)c(=O)c23)cs1 [Compound 63]
IC50 (PI3K α): 5 to 10 µM | IC50 (PI3K β): 5 to 10 µM | IC50 (PI3K δ): 5 to 10 µM | IC50 (PI3K γ): 1 to 100 nM | PI3K δ/PI3K γ IC50 (selectivity) (PI3K γ): Y (Y = 50 to <850) | IC50 (PI3K-δ in RAJI cells): 500 to 1000 nM | RAJIδ/Raw264.7 γ IC50 (selectivity) [1]: Y (Y = 50 to <850) | IC50 [1]: 1 to 50 nM

C[C@H](NC(=O)c1c(N)nn2cccnc12)c1cc2cccc(C#CC3CCCC3)c2c(=O)n1-c1ccccc1 [Compound 64]
IC50 (PI3K α): 5 to 10 µM | IC50 (PI3K β): 5 to 10 µM | IC50 (PI3K δ): 5 to 10 µM | IC50 (PI3K γ): 1000 to 5000 nM | PI3K δ/PI3K γ IC50 (selectivity) (PI3K γ): W (W = >1 to <10) | IC50 (PI3K-δ in RAJI cells): 1000 to 10000 nM | RAJIδ/Raw264.7 γ IC50 (selectivity) [1]: X (X = 10 to <50) | IC50 [1]: 100 to 10000 nM

C[C@H](NC(=O)c1c(N)nn2cccnc12)c1cc2cccc(C#CC3CCCCC3)c2c(=O)n1-c1ccccc1 [Compound 65]
IC50 (PI3K α): 5 to 10 µM | IC50 (PI3K β): 5 to 10 µM | IC50 (PI3K δ): 5 to 10 µM | IC50 (PI3K γ): 1000 to 5000 nM | PI3K δ/PI3K γ IC50 (selectivity) (PI3K γ): W (W = >1 to <10) | IC50 (PI3K-δ in RAJI cells): 1000 to 10000 nM | RAJIδ/Raw264.7 γ IC50 (selectivity) [1]: X (X = 10 to <50) | IC50 [1]: 100 to 10000 nM
